# Reference: patent US20260028365A1 (BIOGEN MA INC., priority 2022, published 2026)
# Legend:
# JAK1 = JAK1 (Homo sapiens (Human), UniProt P23458); experiment: pSTAT3 Cell Assay (MSD, TF1 cells); assay type: cell-based; details: MSD
# Method in brief: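 IC50 values reflect 4-parameter logistic fits of normalized pSTAT3 signal, measured by MSD in lysed TF1 cells. Cells were serum-starved and treated with compound for 1 h (top concentration 10 μM) before a 15 min IL-6 challenge.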
# JAK2 = JAK2 (Homo sapiens (Human), UniProt O60674); experiment: pSTAT5 Cell Assay (MSD, TF1 cells); assay type: cell-based; details: MSD
# Chain of JAK2 (O60674 whole entry): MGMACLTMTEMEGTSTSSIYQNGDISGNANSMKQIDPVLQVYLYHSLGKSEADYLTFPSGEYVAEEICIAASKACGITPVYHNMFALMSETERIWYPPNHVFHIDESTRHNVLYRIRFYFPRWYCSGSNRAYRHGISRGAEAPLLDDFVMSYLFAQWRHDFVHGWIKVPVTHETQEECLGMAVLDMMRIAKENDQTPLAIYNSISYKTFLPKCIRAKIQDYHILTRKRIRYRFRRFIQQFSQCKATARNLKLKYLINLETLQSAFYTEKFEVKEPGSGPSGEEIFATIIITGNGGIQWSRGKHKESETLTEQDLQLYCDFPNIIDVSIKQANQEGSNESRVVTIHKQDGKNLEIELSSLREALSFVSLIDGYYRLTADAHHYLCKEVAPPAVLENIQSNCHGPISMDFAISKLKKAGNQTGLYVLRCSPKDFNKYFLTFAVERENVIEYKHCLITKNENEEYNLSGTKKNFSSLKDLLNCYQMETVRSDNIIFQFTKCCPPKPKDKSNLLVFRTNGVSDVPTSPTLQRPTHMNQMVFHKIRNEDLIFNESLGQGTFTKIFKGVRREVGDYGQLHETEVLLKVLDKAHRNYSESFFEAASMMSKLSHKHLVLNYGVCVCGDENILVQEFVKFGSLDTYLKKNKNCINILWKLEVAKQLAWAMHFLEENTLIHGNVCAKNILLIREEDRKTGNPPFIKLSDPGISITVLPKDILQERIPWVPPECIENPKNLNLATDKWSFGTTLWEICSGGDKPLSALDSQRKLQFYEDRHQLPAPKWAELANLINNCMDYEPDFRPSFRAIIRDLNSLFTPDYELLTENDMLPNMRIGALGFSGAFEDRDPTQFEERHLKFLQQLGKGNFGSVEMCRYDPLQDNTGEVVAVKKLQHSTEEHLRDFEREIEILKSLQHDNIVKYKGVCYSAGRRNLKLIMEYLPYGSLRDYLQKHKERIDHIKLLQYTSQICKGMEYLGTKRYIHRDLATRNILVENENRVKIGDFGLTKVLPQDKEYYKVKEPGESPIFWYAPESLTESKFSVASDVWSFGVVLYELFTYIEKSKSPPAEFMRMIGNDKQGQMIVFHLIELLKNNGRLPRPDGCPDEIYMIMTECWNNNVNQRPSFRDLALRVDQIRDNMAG
# Method in brief: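 Serum-starved TF1 cells were pretreated with compound for 1 h (10-point four-fold series from 10 μM), then stimulated with 30 ng/mL IL-3 for 15 min. pSTAT5 in lysates was measured by MSD immunoassay. IC50 came from a 4-parameter logistic fit.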
# JH2 domain of human Tyk2 = JH2 domain of human Tyk2 (Homo sapiens (Human), UniProt P29597); experiment: JH2 Biochemical Assay (TR-FRET probe displacement); assay type: binding
# Chain of JH2 domain of human Tyk2 (P29597 575-876): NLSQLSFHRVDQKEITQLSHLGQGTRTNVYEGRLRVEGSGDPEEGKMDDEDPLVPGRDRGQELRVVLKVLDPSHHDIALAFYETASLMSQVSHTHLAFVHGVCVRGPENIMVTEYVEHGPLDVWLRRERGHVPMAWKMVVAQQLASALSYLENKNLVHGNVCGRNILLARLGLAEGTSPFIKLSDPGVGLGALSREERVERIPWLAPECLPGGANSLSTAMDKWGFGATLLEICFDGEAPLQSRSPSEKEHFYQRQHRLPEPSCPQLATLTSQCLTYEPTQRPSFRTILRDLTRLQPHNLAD
# Tyk2 = Tyk2 (Homo sapiens (Human), UniProt P29597); experiment: pSTAT4 Cell Assay (MSD, NK92 cells); assay type: cell-based; details: MSD
# Chain of Tyk2 (P29597 whole entry, the tested form may be a part): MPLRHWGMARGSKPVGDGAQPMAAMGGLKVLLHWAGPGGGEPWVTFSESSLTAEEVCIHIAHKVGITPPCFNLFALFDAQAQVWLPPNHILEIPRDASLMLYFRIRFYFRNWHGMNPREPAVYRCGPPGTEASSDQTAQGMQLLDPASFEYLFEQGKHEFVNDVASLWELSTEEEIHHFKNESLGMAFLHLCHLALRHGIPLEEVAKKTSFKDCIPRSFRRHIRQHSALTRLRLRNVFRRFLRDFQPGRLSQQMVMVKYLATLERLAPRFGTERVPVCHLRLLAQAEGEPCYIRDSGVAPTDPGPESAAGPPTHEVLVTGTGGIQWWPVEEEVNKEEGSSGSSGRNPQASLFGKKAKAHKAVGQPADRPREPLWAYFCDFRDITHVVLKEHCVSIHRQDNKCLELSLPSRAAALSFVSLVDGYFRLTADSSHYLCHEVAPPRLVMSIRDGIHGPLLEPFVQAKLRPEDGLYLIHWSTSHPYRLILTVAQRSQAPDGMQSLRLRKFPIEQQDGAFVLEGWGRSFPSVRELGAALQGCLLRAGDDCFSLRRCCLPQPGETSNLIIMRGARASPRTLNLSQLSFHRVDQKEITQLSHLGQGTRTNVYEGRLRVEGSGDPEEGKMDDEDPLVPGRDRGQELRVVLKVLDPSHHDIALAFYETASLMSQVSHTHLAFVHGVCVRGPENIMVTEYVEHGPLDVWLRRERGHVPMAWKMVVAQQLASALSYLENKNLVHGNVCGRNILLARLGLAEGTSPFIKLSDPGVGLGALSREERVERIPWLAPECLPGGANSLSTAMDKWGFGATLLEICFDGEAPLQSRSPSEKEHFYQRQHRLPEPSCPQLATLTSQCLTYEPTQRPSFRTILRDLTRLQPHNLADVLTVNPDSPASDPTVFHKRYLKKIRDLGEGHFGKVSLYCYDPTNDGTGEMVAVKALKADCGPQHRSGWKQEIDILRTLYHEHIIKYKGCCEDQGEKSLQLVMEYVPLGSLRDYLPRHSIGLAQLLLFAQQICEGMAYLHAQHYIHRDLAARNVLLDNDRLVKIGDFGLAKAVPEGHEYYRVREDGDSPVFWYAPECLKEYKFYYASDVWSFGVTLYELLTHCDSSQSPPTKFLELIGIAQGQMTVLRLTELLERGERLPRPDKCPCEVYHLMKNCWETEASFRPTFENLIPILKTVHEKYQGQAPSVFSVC
# [1] = JH2 domain of human Tyk2, TR-FRET probe displacement
# [2] = TR-FRET probe displacement, JH2 domain of human Tyk2
# Chain of JAK1 (P23458 whole entry): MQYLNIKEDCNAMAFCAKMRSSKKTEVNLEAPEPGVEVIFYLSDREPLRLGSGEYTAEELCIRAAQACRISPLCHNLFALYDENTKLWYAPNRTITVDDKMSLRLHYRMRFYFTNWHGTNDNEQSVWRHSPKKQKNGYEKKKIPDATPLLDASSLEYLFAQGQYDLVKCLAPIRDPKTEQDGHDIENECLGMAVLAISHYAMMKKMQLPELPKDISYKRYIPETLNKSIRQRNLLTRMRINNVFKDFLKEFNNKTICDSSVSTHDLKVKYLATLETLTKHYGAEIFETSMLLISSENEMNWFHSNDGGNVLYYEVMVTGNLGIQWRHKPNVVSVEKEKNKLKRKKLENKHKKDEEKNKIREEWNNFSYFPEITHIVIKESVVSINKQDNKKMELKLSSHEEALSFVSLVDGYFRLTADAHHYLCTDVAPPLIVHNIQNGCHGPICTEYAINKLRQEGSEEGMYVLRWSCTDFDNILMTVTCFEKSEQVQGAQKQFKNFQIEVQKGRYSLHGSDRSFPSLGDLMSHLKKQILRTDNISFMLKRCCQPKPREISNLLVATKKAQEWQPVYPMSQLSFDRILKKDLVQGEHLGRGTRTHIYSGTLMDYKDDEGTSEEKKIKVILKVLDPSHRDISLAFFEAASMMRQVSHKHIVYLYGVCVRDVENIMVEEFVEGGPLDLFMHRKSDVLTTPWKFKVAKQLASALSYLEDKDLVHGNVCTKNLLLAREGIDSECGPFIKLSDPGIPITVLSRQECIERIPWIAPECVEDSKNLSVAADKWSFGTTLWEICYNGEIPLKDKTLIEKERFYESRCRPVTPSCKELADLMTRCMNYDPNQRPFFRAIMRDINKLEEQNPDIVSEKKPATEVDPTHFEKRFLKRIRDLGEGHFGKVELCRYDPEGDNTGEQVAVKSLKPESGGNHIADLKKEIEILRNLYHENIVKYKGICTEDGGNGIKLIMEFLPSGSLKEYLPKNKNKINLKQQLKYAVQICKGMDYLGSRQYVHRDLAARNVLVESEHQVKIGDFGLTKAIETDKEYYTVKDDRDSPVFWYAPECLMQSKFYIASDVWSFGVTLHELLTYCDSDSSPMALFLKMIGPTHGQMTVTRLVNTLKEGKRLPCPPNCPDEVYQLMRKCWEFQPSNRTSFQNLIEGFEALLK
SMILES,IC50 (JAK1; IL-6 stimulated) [µM],IC50 (JAK2; IL-3 stimulated) [µM],IC50 (JH2 domain of human Tyk2; [1]) [µM],IC50 (Tyk2) [µM],IC50 (JAK1; IL-6 stimulation) [µM],IC50 (JAK2; IL-3 stimulation) [µM],IC50 (JH2 domain of human Tyk2; [2]) [µM]
"CC(=O)Nc1cc(Nc2cc(C)nc(C(C)(F)F)n2)c(-c2cn3ccnc3cn2)cn1 [Example 681, N-(4-((2-(1,1-difluoroethyl)-6-methylpyrimidin-4-yl)amino)-5-(imidazo[1,2-a]pyrazin-6-yl)pyridin-2-yl)acetamide]",≥ 1,≥ 1,≤ 0.01,≤ 0.01,,,
"COCCOc1cc(Nc2cc(NC(C)=O)ncc2OC)nc(C(C)(F)F)n1 [Example 37, N-(4-((2-(1,1-difluoroethyl)-6-(2-methoxyethoxy)pyrimidin-4-yl)amino)-5-methoxypyridin-2-yl)acetamide]",,,,0.1 to 1,≥ 1,≥ 1,≤ 0.01
"CCOc1cnc(NC(C)=O)cc1Nc1cc(-c2cnn(C(C)C)c2)nc(C(C)(F)F)n1 [Example 306, N-(4-((2-(1,1-difluoroethyl)-6-(1-isopropyl-1H-pyrazol-4-yl)pyrimidin-4-yl)amino)-5-ethoxypyridin-2-yl)acetamide]",,,,≤ 0.01,≥ 1,≥ 1,≤ 0.01
"CC(=O)Nc1cc(Nc2cc(C)nc(C(C)(F)F)n2)c(-c2cc3n(n2)CCN(C)C3)cn1 [Example 226, N-(4-((2-(1,1-difluoroethyl)-6-methylpyrimidin-4-yl)amino)-5-(5-methyl-4,5,6,7-tetrahydropyrazolo[1,5-a]pyrazin-2-yl)pyridin-2-yl)acetamide]",,,,≤ 0.01,0.1 to 1,≥ 1,≤ 0.01
"[2H]C([2H])([2H])C([2H])([2H])Oc1cnc(NC(C)=O)cc1Nc1cc(C)nc(C(C)(F)F)n1 [Example 49, N-(4-((2-(1,1-difluoroethyl)-6-methylpyrimidin-4-yl)amino)-5-(ethoxy-d5)pyridin-2-yl)acetamide]",,,,0.01 to 0.1,≥ 1,≥ 1,≤ 0.01
"[2H]C([2H])([2H])C([2H])([2H])Oc1cnc(NC(C)=O)cc1Nc1cc(NC2CCC2)nc(C(C)(F)F)n1 [Example 488, N-(4-((6-(cyclobutylamino)-2-(1,1-difluoroethyl)pyrimidin-4-yl)amino)-5-(ethoxy-d5)pyridin-2-yl)acetamide]",≥ 1,≥ 1,≤ 0.01,≤ 0.01,,,
"CC(=O)Nc1cc(Nc2cc(C)nc(C(C)(F)F)n2)c(-c2ccn(C3CC3)n2)cn1 [Example 602, N-(5-(1-cyclopropyl-1H-pyrazol-3-yl)-4-((2-(1,1-difluoroethyl)-6-methylpyrimidin-4-yl)amino)pyridin-2-yl)acetamide]",≥ 1,≥ 1,≤ 0.01,≤ 0.01,,,
"CCOc1cnc(NC(C)=O)cc1Nc1cc(OC2CC2)nc(C(C)(F)F)n1 [Example 490, N-(4-((6-cyclopropoxy-2-(1,1-difluoroethyl)pyrimidin-4-yl)amino)-5-ethoxypyridin-2-yl)acetamide]",≥ 1,≥ 1,≤ 0.01,≤ 0.01,,,
"CC(=O)Nc1cc(Nc2cc(C)nc(C(C)(F)F)n2)c(-c2cnn(C)n2)cn1 [Example 227, N-(4-((2-(1,1-difluoroethyl)-6-methylpyrimidin-4-yl)amino)-5-(2-methyl-2H-1,2,3-triazol-4-yl)pyridin-2-yl)acetamide]",,,,≤ 0.01,≥ 1,≥ 1,≤ 0.01
"CC(=O)Nc1cc(Nc2cc(C)nc(C(C)(F)F)n2)c(-c2ccc(N(C)C)cn2)cn1 [Example 652, N-(4′-((2-(1,1-difluoroethyl)-6-methylpyrimidin-4-yl)amino)-5-(dimethylamino)-[2,3′-bipyridin]-6′-yl)acetamide]",≥ 1,≥ 1,≤ 0.01,≤ 0.01,,,
"CC(=O)Nc1cc(Nc2cc(C)nc(C(C)(F)F)n2)c(C2CC2)cn1 [Example 29, N-(5-cyclopropyl-4-((2-(1,1-difluoroethyl)-6-methylpyrimidin-4-yl)amino)pyridin-2-yl)acetamide]",,,,0.1 to 1,≥ 1,≥ 1,≤ 0.01
"CCc1cc(Nc2cc(NC(C)=O)ncc2OC)nc(C(C)(F)F)n1 [Example 36, N-(4-((2-(1,1-difluoroethyl)-6-ethylpyrimidin-4-yl)amino)-5-methoxypyridin-2-yl)acetamide]",,,,0.01 to 0.1,≥ 1,≥ 1,≤ 0.01
"CCc1cc(Nc2cc(NC(C)=O)ncc2-c2ccc(COC)cn2)nc(C23COC(C2)C3)n1 [Example 566, N-(4′-((2-(2-oxabicyclo[2.1.1]hexan-4-yl)-6-ethylpyrimidin-4-yl)amino)-5-(methoxymethyl)-[2,3′-bipyridin]-6′-yl)acetamide]",≥ 1,≥ 1,≤ 0.01,≤ 0.01,,,
"COCc1cccc(-c2cnc(NC(C)=O)cc2Nc2cc(C)nc(C(C)(F)F)n2)n1 [Example 636, N-(4′-((2-(1,1-difluoroethyl)-6-methylpyrimidin-4-yl)amino)-6-(methoxymethyl)-[2,3′-bipyridin]-6′-yl)acetamide]",≥ 1,≥ 1,≤ 0.01,≤ 0.01,,,
"CC(=O)Nc1cc(Nc2cc(C)nc(C(C)(F)F)n2)c(OCC[C@@H](C)F)cn1 [Example 336, (R)-N-(4-((2-(1,1-difluoroethyl)-6-methylpyrimidin-4-yl)amino)-5-(3-fluorobutoxy)pyridin-2-yl)acetamide]",,,,0.01 to 0.1,≥ 1,≥ 1,≤ 0.01
"COc1cnc(NC(C)=O)cc1Nc1cc(C2CC2)nc(C(C)(F)F)n1 [Example 17, N-(4-((6-cyclopropyl-2-(1,1-difluoroethyl)pyrimidin-4-yl)amino)-5-methoxypyridin-2-yl)acetamide]",,,,0.01 to 0.1,≥ 1,≥ 1,≤ 0.01
"CC(=O)Nc1cc(Nc2cc(OC3CC3)nc(C(C)(F)F)n2)c(OC[C@H]2COCCO2)cn1 (single isomer, unassigned) [Example 454, (R)-N-(5-((1,4-dioxan-2-yl)methoxy)-4-((6-cyclopropoxy-2-(1,1-difluoroethyl)pyrimidin-4-yl)amino)pyridin-2-yl)acetamide or (S)-N-(5-((1,4-dioxan-2-yl)methoxy)-4-((6-cyclopropoxy-2-(1,1-difluoroethyl)pyrimidin-4-yl)amino)pyridin-2-yl)acetamide]",≥ 1,≥ 1,≤ 0.01,≤ 0.01,,,
"CC(=O)Nc1cc(Nc2ccnc(C(C)(F)F)n2)c(-c2cc(C)ncn2)cn1 [Example 201, N-(4-((2-(1,1-difluoroethyl)pyrimidin-4-yl)amino)-5-(6-methylpyrimidin-4-yl)pyridin-2-yl)acetamide]",,,,0.01 to 0.1,≥ 1,≥ 1,≤ 0.01
"CCc1cc(Nc2cc(NC(=O)OC)ncc2OCCOC)nc(C(C)(F)F)n1 [Example 87, methyl (4-((2-(1,1-difluoroethyl)-6-ethylpyrimidin-4-yl)amino)-5-(2-methoxyethoxy)pyridin-2-yl)carbamate]",,,,≤ 0.01,≥ 1,≥ 1,≤ 0.01
"CCOc1cnc(NC(C)=O)cc1Nc1cc(O[C@H]2C[C@H](OC)C2)cc(C(C)(F)F)n1 [Example 14, N-(4-((6-(1,1-difluoroethyl)-4-((1r,3r)-3-methoxycyclobutoxy)pyridin-2-yl)amino)-5-ethoxypyridin-2-yl)acetamide]",,,,0.01 to 0.1,≥ 1,≥ 1,≤ 0.01
"CC(=O)Nc1cc(Nc2cc(OC3CC3)nc(C(C)(F)F)n2)c(OC[C@@H]2COCCO2)cn1 (single isomer, unassigned) [Example 453, (S)-N-(5-((1,4-dioxan-2-yl)methoxy)-4-((6-cyclopropoxy-2-(1,1-difluoroethyl)pyrimidin-4-yl)amino)pyridin-2-yl)acetamide or (R)-N-(5-((1,4-dioxan-2-yl)methoxy)-4-((6-cyclopropoxy-2-(1,1-difluoroethyl)pyrimidin-4-yl)amino)pyridin-2-yl)acetamide]",≥ 1,≥ 1,≤ 0.01,≤ 0.01,,,
"CC(=O)Nc1cc(Nc2cc(C)nc(C(C)(F)F)n2)c(-c2cnc(F)cn2)cn1 [Example 598, N-(4-((2-(1,1-difluoroethyl)-6-methylpyrimidin-4-yl)amino)-5-(5-fluoropyrazin-2-yl)pyridin-2-yl)acetamide]",≥ 1,≥ 1,≤ 0.01,0.01 to 0.1,,,
"CC(=O)Nc1cc(Nc2ccnc(C(C)(F)F)n2)c(-c2ccc(F)cn2)cn1 [Example 580, N-(4′-((2-(1,1-difluoroethyl)pyrimidin-4-yl)amino)-5-fluorO[2,3′-bipyridin]-6′-yl)acetamide]",≥ 1,≥ 1,≤ 0.01,≤ 0.01,,,
"CC(=O)Nc1cc(Nc2cc(C)nc(C(C)(F)F)n2)c(-c2ccc(F)cn2)cn1 [Example 594, N-(4′-((2-(1,1-difluoroethyl)-6-methylpyrimidin-4-yl)amino)-5-fluorO[2,3′-bipyridin]-6′-yl)acetamide]",≥ 1,≥ 1,≤ 0.01,≤ 0.01,,,
